The target in this experiment is T1, DPP-IV (Homo sapiens, UniProt P27487).
T1 construct: Soluble human DPP-IV lacking the transmembrane anchor (Gly31-Pro766) was expressed in a recombinant YEAST-strain; Pre-Pro-alpha-mating factor leader (secretion fusion) (N, cleaved yes); made in house
Put plainly: Inhibition of DPP-IV peptidase activity, continuous fluorimetric assay (Gly-Pro-AMC cleavage). It counts as biochemical, human and porcine. On the procedure: Inhibition of DPP-IV peptidase activity was monitored with a continuous fluorimetric assay. This assay is based on the cleavage of the substrate Gly-Pro-AMC (Bachem) by DPP-IV, releasing free AMC. The assay is carried out in 96-well microtiterplates. In a total volume of 100 μL, compounds are preincubated with 50 pM DPP-IV employing a buffer containing 10 mM Hepes, 150 mM NaCl, 0.005% Tween 20 (pH 7.4). […] The final concentration of DMSO is 1%. The inhibitory potential of the compounds were determined.
Soluble human DPP-IV lacking the transmembrane anchor (Gly31-Pro766) was expressed in a recombinant YEAST-strain as Pre-Pro-alpha-mating fusion. The secreted product (rhuDPP-IV-Gly31-Pro766) was purified from fermentation broth (>90% purity).

Setting [1] is: inhibition of DPP-IV peptidase activity, 50 pM DPP-IV, 16 μM Gly-Pro-AMC, pH 7.4, 25° C., values grouped in 3 classes, read-out: IC50.

Molecules are shown by their SMILES. Where two headings read alike, the source gives them in different places.

T1 sequence (P27487 31-766): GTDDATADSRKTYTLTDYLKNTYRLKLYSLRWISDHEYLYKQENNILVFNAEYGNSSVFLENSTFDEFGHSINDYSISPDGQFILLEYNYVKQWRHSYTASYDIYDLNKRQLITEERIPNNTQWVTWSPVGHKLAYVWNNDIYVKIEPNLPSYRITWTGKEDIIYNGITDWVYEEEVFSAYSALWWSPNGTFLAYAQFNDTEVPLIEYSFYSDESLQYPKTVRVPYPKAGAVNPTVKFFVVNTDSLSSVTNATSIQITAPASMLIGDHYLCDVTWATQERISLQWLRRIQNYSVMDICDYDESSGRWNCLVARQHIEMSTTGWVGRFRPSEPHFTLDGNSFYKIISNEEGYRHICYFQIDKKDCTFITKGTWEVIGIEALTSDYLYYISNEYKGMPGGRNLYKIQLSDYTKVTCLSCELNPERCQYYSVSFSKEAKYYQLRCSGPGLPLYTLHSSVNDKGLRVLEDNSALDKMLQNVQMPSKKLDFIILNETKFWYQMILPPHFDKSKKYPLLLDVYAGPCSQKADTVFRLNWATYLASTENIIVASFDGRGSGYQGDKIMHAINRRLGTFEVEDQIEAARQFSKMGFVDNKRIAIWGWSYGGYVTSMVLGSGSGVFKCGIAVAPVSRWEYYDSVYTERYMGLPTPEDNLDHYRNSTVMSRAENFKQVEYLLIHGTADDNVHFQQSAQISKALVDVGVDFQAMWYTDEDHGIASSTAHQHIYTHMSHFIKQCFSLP

For the compound `C[C@@H](CNC(=O)C[C@H](N)Cc1ccccc1F)c1ccccc1` [Example 94], under setting [1], the IC50 lay in the range of 101 to 1000 nM.

For `N[C@@H](CC(=O)NCCc1ccc(Cl)cc1)Cc1ccccc1F` [Example 95], the IC50 under setting [1] was 101 to 1000 nM.

On to `N[C@@H](CC(=O)NCCc1ccccc1Cl)Cc1ccccc1F` [Example 96], for which the IC50 under setting [1] lay in the range of 101 to 1000 nM.

As to `COc1ccccc1CCNC(=O)C[C@H](N)Cc1ccccc1F` [Example 97], under setting [1], the IC50 is 1000 to 2000 nM.

For `COc1ccc(CCNC(=O)C[C@H](N)Cc2ccccc2F)cc1` [Example 98], under setting [1], the IC50 was 1000 to 2000 nM.

Regarding `COc1ccc([C@@H](C)NC(=O)C[C@H](N)Cc2ccccc2F)cc1` [Example 99], the IC50 under setting [1] lay within 1000 to 2000 nM.

Consider `COc1cccc(C(C)NC(=O)CC(N)Cc2ccccc2F)c1` (centres unmarked) [Example 102], for which the IC50 under setting [1] was in the range of 1000 to 2000 nM.

For `N[C@@H](CC(=O)NCCc1ccc(S(N)(=O)=O)cc1)Cc1ccccc1F` [Example 104], the IC50 under setting [1] lay in the range of 101 to 1000 nM.

In the case of `CN(C(=O)C[C@H](N)Cc1ccccc1F)C(c1ccccc1)c1ccccc1` [Example 105], the IC50 under setting [1] was 101 to 1000 nM.

`N[C@@H](CC(=O)NCCc1ccc(F)cc1)Cc1ccccc1F` [Example 110]: the IC50 under setting [1] was 1000 to 2000 nM.

Turning to `NC(CC(=O)NCCc1cccc(F)c1)Cc1ccccc1F` (centres unmarked) [Example 111], the IC50 under setting [1] was 1000 to 2000 nM.

As for `N[C@@H](CC(=O)NCCc1cccc(Cl)c1)Cc1ccccc1F` [Example 112], the IC50 under setting [1] is 101 to 1000 nM.

For `N[C@@H](CC(=O)NCCc1ccccc1F)Cc1ccccc1F` [Example 113], the IC50 under setting [1] fell in the range of 101 to 1000 nM.

As for `N[C@@H](CC(=O)NCCc1c(F)cccc1Cl)Cc1ccccc1F` [Example 114], under setting [1], the IC50 fell in the range of 101 to 1000 nM.

For `Cc1ccc(CNC(=O)C[C@H](N)Cc2ccccc2F)cc1` [Example 115], the IC50 under setting [1] lay within 101 to 1000 nM.

Consider `N[C@@H](CC(=O)NCc1cccc2cnccc12)Cc1ccccc1F` [Example 116], for which, under setting [1], the IC50 lay within 1000 to 2000 nM.

Regarding `N[C@@H](CC(=O)NCc1ccccc1F)Cc1ccccc1F` [Example 117], under setting [1], the IC50 is 101 to 1000 nM.

With `N[C@@H](CC(=O)NCc1cccc(F)c1)Cc1ccccc1F` [Example 118], the IC50 under setting [1] lay within 101 to 1000 nM.

For `NC(CC(=O)NC1CCc2ccccc21)Cc1ccccc1F` (centres unmarked) [Example 120], the IC50 under setting [1] was in the range of 1000 to 2000 nM.

Regarding `CN(Cc1ccccc1)C(=O)C[C@H](N)Cc1ccccc1F` [Example 121], under setting [1], the IC50 lay within 101 to 1000 nM.

For `CN(Cc1cccnc1)C(=O)C[C@H](N)Cc1ccccc1F` [Example 122], under setting [1], the IC50 lay in the range of 101 to 1000 nM.

For `CN(Cc1ccccc1Cl)C(=O)C[C@H](N)Cc1ccccc1F` [Example 123], the IC50 under setting [1] fell in the range of 101 to 1000 nM.

With `CN(Cc1cccc(C(F)(F)F)c1)C(=O)C[C@H](N)Cc1ccccc1F` [Example 124], under setting [1], the IC50 lay within 101 to 1000 nM.

For the compound `CN(Cc1ccc(F)cc1)C(=O)C[C@H](N)Cc1ccccc1F` [Example 125], the IC50 under setting [1] lay within 101 to 1000 nM.

`COc1ccc(CN(C)C(=O)C[C@H](N)Cc2ccccc2F)cc1` [Example 126]: the IC50 under setting [1] lay in the range of 101 to 1000 nM.

Consider `CN1CCN(c2ccc(CNC(=O)C[C@H](N)Cc3ccccc3F)cc2)CC1` [Example 127], for which the IC50 under setting [1] was in the range of 101 to 1000 nM.

For `N#Cc1ccc(CNC(=O)C[C@H](N)Cc2ccccc2F)cc1` [Example 129], the IC50 under setting [1] lay in the range of 101 to 1000 nM.

`CCOc1ccccc1CCNC(=O)C[C@H](N)Cc1ccccc1F` [Example 130]: under setting [1], the IC50 fell in the range of 101 to 1000 nM.

Take `N[C@@H](CC(=O)NCc1cccc2ncccc12)Cc1ccccc1F` [Example 138]: the IC50 under setting [1] fell in the range of 101 to 1000 nM.

Regarding `N[C@@H](CC(=O)NCc1cccc(OC(F)F)c1)Cc1ccccc1F` [Example 139], the IC50 under setting [1] lay within 101 to 1000 nM.

Turning to `Cc1nn(-c2ccccc2)c(C)c1CNC(=O)C[C@H](N)Cc1ccccc1F` [Example 140], the half-maximal inhibitory concentration (IC50) under setting [1] fell in the range of 101 to 1000 nM.

Turning to `CS(=O)(=O)c1ccc(CNC(=O)C[C@H](N)Cc2ccccc2F)cc1` [Example 141], the IC50 under setting [1] lay in the range of 101 to 1000 nM.

In the case of `COc1ccc(Oc2cccc(F)c2CNC(=O)C[C@H](N)Cc2ccccc2F)cc1` [Example 142], the IC50 under setting [1] was 101 to 1000 nM.

For the compound `CN(C)CCOc1ccc(CNC(=O)C[C@H](N)Cc2ccccc2F)cc1` [Example 143], the IC50 under setting [1] is 1000 to 2000 nM.

As for `NC(CC(=O)N(Cc1ccccc1F)C1CC1)Cc1ccccc1F` (centres unmarked) [Example 144], the IC50 under setting [1] was in the range of 101 to 1000 nM.

For `N[C@@H](CC(=O)N(Cc1cccnc1)C1CC1)Cc1ccccc1F` [Example 145], the IC50 under setting [1] was in the range of 101 to 1000 nM.

For `Cn1c(CNC(=O)C[C@H](N)Cc2ccccc2F)nc2ccccc21` [Example 146], the IC50 under setting [1] fell in the range of 101 to 1000 nM.

Consider `N[C@@H](CC(=O)NCc1ccc(S(N)(=O)=O)cc1)Cc1ccccc1F` [Example 147], for which the IC50 under setting [1] is 101 to 1000 nM.

Consider `N[C@@H](CC(=O)NCCNC(=O)c1ccccn1)Cc1ccccc1F` [Example 148], for which, under setting [1], the IC50 is 101 to 1000 nM.

With `Cc1onc(-c2ccccc2)c1CNC(=O)C[C@H](N)Cc1ccccc1F` [Example 149], under setting [1], the IC50 lay in the range of 101 to 1000 nM.

Consider `Cc1ccccc1-n1nc(C)c(CNC(=O)C[C@H](N)Cc2ccccc2F)c1C` [Example 151], for which the half-maximal inhibitory concentration (IC50) under setting [1] lay within 101 to 1000 nM.

As to `N[C@@H](CC(=O)NCc1cc(-c2ccc(Cl)cc2)no1)Cc1ccccc1F` [Example 152], the IC50 under setting [1] was in the range of 101 to 1000 nM.

Consider `N[C@@H](CC(=O)NCc1ccc(OC(F)F)cc1)Cc1ccccc1F` [Example 153], for which the IC50 under setting [1] fell in the range of 1000 to 2000 nM.

Turning to `N[C@@H](CC(=O)NCc1ccccc1N1CCCCC1)Cc1ccccc1F` [Example 154], the IC50 under setting [1] was in the range of 101 to 1000 nM.

With `N[C@@H](CC(=O)N(CCN1CCOCC1)Cc1cccnc1)Cc1ccccc1F` [Example 155], the IC50 under setting [1] fell in the range of 101 to 1000 nM.

Turning to `N[C@@H](CC(=O)NCC(c1ccccc1Cl)N1CCOCC1)Cc1ccccc1F` (some centres unmarked) [Example 156], under setting [1], the IC50 was in the range of 101 to 1000 nM.

In the case of `N[C@@H](CC(=O)NCC(c1cccc(Cl)c1)N1CCOCC1)Cc1ccccc1F` (some centres unmarked) [Example 157], under setting [1], the IC50 was in the range of 101 to 1000 nM.

Turning to `NC(CC(=O)NCC(c1ccc(Cl)cc1)N1CCOCC1)Cc1ccccc1F` (centres unmarked) [Example 158], under setting [1], the IC50 is 101 to 1000 nM.

In the case of `CN1CCN(CC(NC(=O)C[C@H](N)Cc2ccccc2F)c2ccccc2)CC1` (some centres unmarked) [Example 159], the IC50 under setting [1] lay in the range of 101 to 1000 nM.

In the case of `CN1CCN(CC(c2ccccc2)N(C)C(=O)C[C@H](N)Cc2ccccc2F)CC1` (some centres unmarked) [Example 160], the IC50 under setting [1] is 1000 to 2000 nM.

As for `N[C@@H](CC(=O)NCc1n[nH]c2ccc(Cl)cc12)Cc1ccccc1F` [Example 161], where the note is “IC50”, the concentration for half-maximal inhibition (IC50) lay in the range of 101 to 1000 nM.

On to `N[C@@H](CC(=O)NCc1cnn(-c2ccccc2)c1)Cc1ccccc1F` [Example 163], for which the IC50 under setting [1] was in the range of 101 to 1000 nM.

For `N[C@@H](CC(=O)NCc1cc(Cl)ccc1-n1cncn1)Cc1ccccc1F` [Example 164], the IC50 under setting [1] is 101 to 1000 nM.

For `NC(CC(=O)NCC(c1ccccc1)N1CCOCC1)Cc1ccccc1F` (centres unmarked) [Example 167], under setting [1], the IC50 lay in the range of 101 to 1000 nM.

Take `N[C@@H](CC(=O)NCc1cccc(-n2cccn2)c1)Cc1ccccc1F` [Example 171]: the IC50 under setting [1] fell in the range of 101 to 1000 nM.

`N[C@@H](CC(=O)NCC(c1cccc(Cl)c1)N1CCCC1)Cc1ccccc1F` (some centres unmarked) [Example 172]: the IC50 under setting [1] lay within 101 to 1000 nM.

For the compound `N[C@@H](CC(=O)N[C@@H](CN1CCCCC1)c1ccccc1)Cc1ccccc1F` [Example 173], under setting [1], the IC50 was in the range of 101 to 1000 nM.

As for `CC(NC(=O)C[C@H](N)Cc1ccccc1F)c1ccc(-n2ccnc2)cc1` (some centres unmarked) [Example 174], the IC50 under setting [1] fell in the range of 101 to 1000 nM.

Take `CN(Cc1cn2ccccc2n1)C(=O)C[C@H](N)Cc1ccccc1F` [Example 175]: the IC50 under setting [1] lay within 1000 to 2000 nM.

In the case of `CN(CC(c1ccccc1)N1CCOCC1)C(=O)C[C@H](N)Cc1ccccc1F` (some centres unmarked) [Example 177], the IC50 under setting [1] was less than 100 nM.

Turning to `CN(CC(c1ccccc1Cl)N1CCCC1)C(=O)C[C@H](N)Cc1ccccc1F` (some centres unmarked) [Example 178], the IC50 under setting [1] is less than 100 nM.

Take `CN(C(=O)C[C@H](N)Cc1ccccc1F)[C@@H](CN1CCCC1)c1ccccc1` [Example 179, (R)-3-Amino-4-(2-fluoro-phenyl)-N-methyl-N-(1-phenyl-2-pyrrolidin-1-yl-ethyl)-butyramide Formic Acid]: the IC50 (IC50, inhibition of DPP-IV peptidase activity, 50 pM DPP-IV, 16 μM Gly-Pro-AMC, pH 7.4, 25° C., values grouped in 3 classes) is 101 to 1000 nM.

Turning to `N[C@H](Cc1ccccc1F)CS(=O)(=O)NCc1ccc(C(F)(F)F)nc1` [Example 191, (R)-2-Amino-3-(2-fluoro-phenyl)-Propane-1-sulphonic acid (6-trifluoromethyl-pyridin-3-ylmethyl)-amide], the IC50 under setting [1] fell in the range of 101 to 1000 nM.

Consider `N[C@H](Cc1ccccc1F)CS(=O)(=O)NCc1cccc(C(F)(F)F)c1` [Example 192, (R)-2-Amino-3-(2-fluoro-phenyl)-propane-1-sulphonic acid 3-trifluoromethyl-benzyl-amide], for which, under setting [1], the IC50 fell in the range of 101 to 1000 nM.

`CN(Cc1cccc(C(F)(F)F)c1)S(=O)(=O)C[C@H](N)Cc1ccccc1F` [Example 193, (R)-2-Amino-3-(2-fluoro-phenyl)-propane-1-sulphonic acid methyl-(3-trifluoromethyl-benzyl)-amide]: the IC50 under setting [1] fell in the range of 101 to 1000 nM.

(Values after patent publication US20070197522A1, “Dpp-iv inhibitors” (priority 2004, published 2007).)
